Laboratory results taken from US7256215B2, “Crystals of 5-hydroxycarbamimidoyl-2-hydroxybenzenesulfonamide derivative” (Kissei Pharmaceutical Co., Ltd., priority 2002, dated 2007).
Like-named read-outs stand apart in the source and are kept apart here.

Legend:
[1] = Saturated water solubility; assay type: physicochemical; details: for solubility: water, thermodynamic from solid
Description: (Saturated Water Solubility) Approximately 40 mg of test substances is placed in a vessel, and approximately 15 mL of water is added thereto to suspend. The suspensions are warmed at 37° C. with stirring, and approximately 1 mL of aliquots is collected with time. Each of aliquots is filtered through a 0.45 μm filter. Thereafter, 500 μL is taken accurately from the filtrate, and 500 μL of a mixed solvent of water/acetonitrile (1/1) is added thereto to prepare a test solution. Five μL of the test solution is analyzed by a high performance liquid chromatography method according to the following conditions. Among water solubilities at each point of test solutions, the highest concentration is estimated as a saturated water solubility. HPLC Condition: • Detection wavelength; 225 nm • Column; Inertsil ODS-3, 5 μm, 4.6 mm I.D.×250 mm • Column temperature; 30° C. • Mobile phase; • 0.02 mol/L phosphate buffer (pH 3.0): acetonitrile mixed solvent • 0→30 min; 42:58 • Flow rate; […] • Measurement time; 30 min

[2] = Storage stability test (residual rate by HPLC); assay type: physicochemical; details: hydrochloride; for Residual Rate (%): storage at 40° C./90% relative humidity for two months, HPLC; for Storage stability (in words): stored for a long period
Description: (Storage Stability Test) Stability test was carried out under a storage condition of 40° C./90% relative humidity for two months for test substances. The residual rates of test substances were determined by HPLC according to the following conditions. HPLC Condition: • Detection wavelength; 225 nm • Column; CAPCELL PAK C18, MG 5 μm, 3.0 mm I.D.×250 mm • Column temperature; 35° C. • Mobile phase; • 0.02 mol/L phosphate buffer (pH 6.0): acetonitrile mixed solvent • 0→20 min; 42:58 • 20→40 min; 42:58→70:30 • 40→45 min; 70:30 • Flow rate; 0.5 mL/min

[3] = molecular target: T1, activated blood coagulation factor X (Homo sapiens, UniProt P00742); experiment: Inhibitory activity against activated blood coagulation factor X (statement, no method given); assay type: biochemical
Target sequence in this assay (P00742 235-488 limits assumed): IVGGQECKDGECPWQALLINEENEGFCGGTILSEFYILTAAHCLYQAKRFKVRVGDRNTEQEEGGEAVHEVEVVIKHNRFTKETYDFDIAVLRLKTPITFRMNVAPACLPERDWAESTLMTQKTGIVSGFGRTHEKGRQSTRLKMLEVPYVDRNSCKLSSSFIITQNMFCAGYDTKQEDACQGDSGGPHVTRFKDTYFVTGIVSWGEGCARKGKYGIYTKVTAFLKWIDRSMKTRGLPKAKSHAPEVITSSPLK
Target sequence in this assay (P00742 41-179 partner limits assumed): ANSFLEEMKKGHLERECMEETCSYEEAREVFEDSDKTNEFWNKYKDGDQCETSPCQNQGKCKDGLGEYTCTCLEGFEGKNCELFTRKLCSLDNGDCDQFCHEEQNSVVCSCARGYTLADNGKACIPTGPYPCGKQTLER

prothrombin time (PT) = experiment: Prothrombin time (PT) in plasma of orally dosed rats; assay type: in vivo, Male Wistar rats; details: PT after administration / before administration; rat plasma, oral, 6.0 mg/mL suspension, 5.0 mL/kg, 30 minutes
Description: (Measurement of Activated Blood Coagulation Factor X Inhibitory Activity and Prothrombin Time (PT)) Male Wistar rats aged 6-9 weeks (SLC) fasted overnight were used. Test substances were suspended in 0.5% methylcellulose solution at the concentration of 6.0 mg/mL. Then 5.0 mL/kg of those was orally administrated into the rats. Then, 30 minutes before and after the administration of the test substances, citrated (1:10 dilution, 3.13% sodium citrate) bloods were collected from the jugular vein. Plasma samples were obtained by centrifugation. Effects of test substances on activated blood coagulation factor X and prothrombin time (PT) were investigated using the plasma samples according to the following procedures. 2) Prothrombin Time (PT). Fifty μL of plasma was put in the process tube and then incubated at 37° C. One minute later, 100 mu L of plasma PT reagent (Boehringer Mannheim) prewarmed at 37° C. was added into the mixture. PT was measured with a coagulometer (ST4, Boehringer Mannheim). The ratio of PT at each time point after administration of the test substance to that of before administration was used as the index of anticoagulation activity.

[4] = Storage under ordinary conditions, retention of crystalline form; assay type: physicochemical; details: 25° C./60% relative humidity, long period
[5] = molecular target: T1, activated blood coagulation factor X; experiment: Activated blood coagulation factor X inhibitory activity in plasma of orally dosed rats; assay type: in vivo, Male Wistar rats; parameters: purchased Calbiochem; details: rat plasma 30 minutes after oral administration; 6.0 mg/mL suspension in 0.5% methylcellulose, 5.0 mL/kg
Description: (Measurement of Activated Blood Coagulation Factor X Inhibitory Activity and Prothrombin Time (PT))
Male Wistar rats aged 6-9 weeks (SLC) fasted overnight were used. Test substances were suspended in 0.5% methylcellulose solution at the concentration of 6.0 mg/mL. Then 5.0 mL/kg of those was orally administrated into the rats. Then, 30 minutes before and after the administration of the test substances, citrated (1:10 dilution, 3.13% sodium citrate) bloods were collected from the jugular vein. Plasma samples were obtained by centrifugation. Effects of test substances on activated blood coagulation factor X and prothrombin time (PT) were investigated using the plasma samples according to the following procedures.
1) Activated Blood Coagulation Factor X Inhibitory Activity
2.5 μL of plasma sample, 200 μL of 100 mM tris-200 mM NaCl buffer (pH 8.4) and 10 μL of 0.06 U/mL human activated blood coagulation factor X (Calbiochem) in gelatin-glycine buffer were poured into 96 well microplate. […] The reaction was terminated with the addition of 50 μL of 60% acetic acid and absorbance (405 nm) was measured by a microplate reader (SPECTRAmax250, Molecular Devices). […] The inhibitory % of plasma sample was calculated from absorbance of the control as 100% and this value was used as the index of anti-activated blood coagulation factor X activity in plasma.
Target sequence in this assay (P00742 235-488 limits assumed): as the sequence (P00742 235-488 limits assumed) above
Target sequence in this assay (P00742 41-179 limits assumed): as the sequence (P00742 41-179 partner limits assumed) above

[6] = Oral bioavailability (statement, no method given); assay type: in vivo

With CCCCOC(=O)COc1cc(-c2ccccc2S(C)(=O)=O)ccc1CCNS(=O)(=O)c1cc(C(=N)NO)ccc1O.Cl.O [Reference Example 2, n-butyl[4-[2-[2-hydroxy-5-(N-hydroxy-carbamimidoyl)benzenesulfonylamino]ethyl]-2′-methanesulfonylbiphenyl-3-yloxy]acetate hydrochloride monohydrate] the “Water solubility (in words)” value [1] was “poor water solubility” and the solubility ([1]; 37 °C) was 270 µg/mL.
For CCCCOC(=O)COc1cc(-c2ccccc2S(C)(=O)=O)ccc1CCNS(=O)(=O)c1cc(C(=N)NO)ccc1O.Cl [Reference Example 1, n-butyl[4-[2-[2-hydroxy-5-(N-hydroxycarbamimidoyl)benzenesulfonylamino]ethyl]-2′-methanesulfonylbiphenyl-3-yloxy]acetate hydrochloride], the “Residual Rate (%)” value [2] was 96.8% and the “Storage stability (in words)” value ([2]; listed as crystalline form A) was “unsatisfactory stabilities”.
With CCCCOC(=O)COc1cc(-c2ccccc2S(C)(=O)=O)ccc1CCNS(=O)(=O)c1cc(C(=N)NO)ccc1O.Cl [formula (I), n-Butyl[4-[2-[2-hydroxy-5-(N-hydroxycarbamimidoyl)benzenesulfontylamino]ethyl]-2′-methanesulfonylbiphenyl-3-yloxy]acetate hydrochloride] the “Inhibitory activities against activated blood coagulation factor X (in words)” value [3] was “excellent inhibitory activities”.
For CCCCOC(=O)COc1cc(-c2ccccc2S(C)(=O)=O)ccc1CCNS(=O)(=O)c1cc(C(=N)NO)ccc1O.Cl [Example 1, n-butyl[4-[2-[2-hydroxy-5-(N-hydroxycarbamimidoyl)benzenesulfonylamino]ethyl]-2′-methanesulfonylbiphenyl-3-yloxy]acetate hydrochloride], the “Ratio of PT” value (prothrombin time (PT)) was 1.50, the “Stability of crystalline form on storage (in words)” value [4] was “without changing its crystalline form” and the “Water solubility (in words)” value [1] was “highly water-soluble”. For the same compound, the solubility ([1]; 37° C., highest concentration over time, read-out: Saturated water solubility) was 1600 µg/mL, the inhibition at 6000 µg/mL (stock) [5] was 58.2% and the “Residual Rate (%)” value [2] was 99.0%. The “Storage stability (in words)” value ([2]; listed as crystalline form B) was “good storage stabilities” and the “Oral bioavailability (in words)” value [6] was “good oral bioavailability”.
